Source: patent US4364958A, “1-Substituted-3-cycloalkyl-sulfonyl-pyrrolidine-2,5-dione derivatives and fungicidal compositions thereof” (Chinoin Gyogyszer es Vegyeszeti Termekek Gyara Rt., priority 1979, dated 1982)
In brackets after ≈: the same amount, converted by molar mass.

How the values were obtained:
[1] = system: Candida benhamii; assay: minimal inhibitory concentration, proliferating fungi; assay type: cell-based
Description: (§1) As a medium Saboroud medium was employed.

[2] = system: Candida guilliermondii; assay: as above; assay type: cell-based; settings: Meyerozyma guilliermondii
Description: as §1

[3] = system: Candida lipolytic; assay: as above; assay type: cell-based
Description: as §1

[4] = system: Candida parapsilosis; assay: as above; assay type: cell-based; settings: Lodderomyces parapsilosis
Description: as §1

[5] = system: Candida pseudotropic; assay: as above; assay type: cell-based
Description: as §1

[6] = system: Candida valida; assay: as above; assay type: cell-based; settings: Pichia membranifaciens
Description: as §1

[7] = system: Candida vini; assay: as above; assay type: cell-based; settings: Kregervanrija fluxuum
Description: as §1

[8] = LD50, intraperitoneal; settings: mouse, in vivo, ip, intraperitoneally
Description: LD50 of N-pheny-3-cyclohexyl-sulfonyl-pyrrolidine-2,3-dione when applied intraperitoneally

Structure (SMILES) | MIC ([1]; 24 hours) [µg/mL] | MIC ([1]; 48 hours) [µg/mL] | MIC ([2]; 24 hours) [µg/mL] | MIC ([2]; 48 hours) [µg/mL] | MIC ([3]; 24 hours) [µg/mL] | MIC ([3]; 48 hours) [µg/mL] | MIC ([4]; 24 hours) [µg/mL] | MIC ([4]; 48 hours) [µg/mL] | MIC ([5]; 24 hours) [µg/mL] | MIC ([5]; 48 hours) [µg/mL] | MIC ([6]; 24 hours) [µg/mL] | MIC ([6]; 48 hours) [µg/mL] | MIC ([7]; 24 hours) [µg/mL] | MIC ([7]; 48 hours) [µg/mL] | LD50 ([8]; female mice) [mg/kg] | LD50 ([8]; male mice) [mg/kg]
Cc1ccc(N2C(=O)CC(S(=O)(=O)C3CCCCC3)C2=O)cc1 (stereo not shown) | 25 (≈ 74.5 µM) | 75 (≈ 224 µM) | 5 (≈ 14.9 µM) | 10 (≈ 29.8 µM) | 5 (≈ 14.9 µM) | 10 (≈ 29.8 µM) | 10 (≈ 29.8 µM) | 50 (≈ 149 µM) | 2.5 (≈ 7.45 µM) | 10 (≈ 29.8 µM) | 5 (≈ 14.9 µM) | 10 (≈ 29.8 µM) | 1 (≈ 2.98 µM) | 5 (≈ 14.9 µM) |  | 
O=C1CC(S(=O)(=O)C2CCCCC2)C(=O)N1c1ccccc1 (stereo not shown) [1-Phenyl-3-cyclohexyl-sulfonyl-pyrrolidine-2,5-dione] |  |  |  |  |  |  |  |  |  |  |  |  |  |  | 382 | 461
